Data on 2 compounds can be found in PMC9305971, “Development of [^18F]AmBF3 Tetrazine for Radiolabeling of Peptides: Preclinical Evaluation and PET Imaging of [^18F]AmBF3-PEG7-Tyr^3-Octreotide in an AR42J Pancreatic Carcinoma Model” (Bioconjugate Chemistry, 2022).

Data set [1] is described as follows: Hydrolytic stability in 0.01 M PBS / formulated solution (radio-HPLC). The class given is physicochemical. To be noted: 4% ethanol-0.01 M PBS (pH 7.4). The method, then:
(§1) Lipophilicity was determined with the shake-flask method as a distribution coefficient between 0.01 M PBS and octanol. Purified radiotracer [^18F]6 (10 μL, ∼200 kBq, 1.5 nmol), [^18F]14 (20 μL, ∼260 kBq, 125 pmol), or [^18F]15 (20 μL, 144 kBq, 67 pmol) in a polypropylene tube containing 1500–2000 μL of each in a 1:1 mixture (1-octanol, 0.02 M PBS, pH 7.4) was shaken mechanically (500 rpm, 10 min) and centrifuged (1000g, 5 min), and samples from each layer (400 μL, n = 4) were measured with a γ-counter. The log D7.4 was calculated as a distribution between the two layers at pH 7.4. [^18F]6 (10 MBq, 40 nmol) diluted with 0.01 M PBS at pH 7.4 (≤1% ethanol, 5300 μL) was incubated for 180 min. At selected time points (5, 30, 60, 90, 120, 150, and 180 min), a sample (100 μL) was injected to radio-HPLC. [^18F]14 and [^18F]15 (29 MBq, 10 nmol) diluted in 2000 μL of 0.01 M PBS (≤1% ethanol) were left to incubate. A sample of [^18F]14 (100 μL) after 9 hours and [^18F]15 at selected time points between 30 and 335 min were injected into HPLC (method A). [^18F]15 (0.6 MBq, 0.134 nmol, 200 μL) formulated in ≤5% EtOH-1 × PBS was added and incubated in 2000 μL of PBS-50% human plasma at 37 °C. A 100 μL sample (at 60, 120, 180, and 240 min, n = 2) was diluted with 200 μL of cold acetonitrile and centrifuged (10,000g, 5 min). After centrifugation, a 100 μL sample of the supernatant was injected for radio-HPLC analysis.

Data set [2] is described as follows: Lipophilicity, shake-flask log D7.4 (1-octanol/PBS). The data set is classed as physicochemical. Conditions: 1-octanol/PBS pH 7.4, n = 4. The method, then:
as §1, with “analysis. […]” for “analysis.”
Lipophilicity. The lipophilicities were determined with the shake-flask method as a distribution profile between 0.01 M PBS and octanol at pH 7.4. The distribution of the radiolabeled compound between the octanol and the PBS layers was calculated according

The test system of data set [3] is SSTR2-expressing rat pancreatic adenocarcinoma AR42J cells. Nature of the data set: Cell uptake assay. The class given is cell-based. Conditions: 120 min; for cell uptake, baseline: n = 3, % internalized; for cell uptake, blocking: n = 3, coincubation with excess octreotide. The method, then: AR42J cells were grown to >90% confluence. One million cells/well were seeded overnight on 6-well plates. The growth media was removed, and the reaction media (1 mL) containing [^18F]14 (11 kBq, 10 pmol per well) or [^18F]15 (97 kBq, 40 pmol per well) was added. Additionally, cells were coincubated with 2.4 nmol per well of nonmodified octreotide for blocking of radiotracer uptake. Radioactivity in the free, membrane-bound, and internalized fractions was determined at designated time points (15, 30, 60, and 120 min) by treating the cells in a sequence of (1) ice-cold 0.01 M PBS, (2) glycine buffer, and (3) 1 M NaOH, respectively. The fractions were collected and measured with a γ-counter. The detailed protocol is given in the Supporting Information. […]
where Acoct=radioactivity concentration of octanol and AcPBS=radioactivity concentration of PBS. The datapoints were presented as mean ± standard deviation.
AR42J cell-uptake assay and mouse tumor model. Rat pancreatic tumor cell line AR42J that expresses SSTR2, was cultured at 37 °C in 95% relative humidity incubator containing 5% CO2. Cells grown to >90% confluence were used for either in vitro or in vivo experiments.
One million cells/well were seeded overnight on 6-well plates. The growth media was removed and the medium (1 mL/well) containing [18F]14 (11 kBq, 10 pmol per well) or [18F]15 (97 kBq, 40 pmol per well) was added. For studying the specificity of the cell -uptake, a set of cells were co-incubated in the presence of 2.4 nmol per well of non -modified octreotide representative of blocking conditions (total volume ~1 mL). For determining the amount of the radiotracer in the free fraction, at the designated time-points (15, 30, 60 and 120 min) the incubated media were removed, collected to a 5 mL scintillation tube, cells were washed with 1 mL of cold 0.01 M PBS (1×PBS) and again the supernatant collected into the same scintillation tube. Membrane-bound fraction; ice-cold glycine buffer (1 mL) was added on the cells, incubated for 5 minutes on ice, supernatant removed (procedure repeated once more) and the cells washed with ice -cold 1×PBS, and all washing solutions were collected to the same scintillation tube. Internalized fraction; 1 M NaOH (1 mL) was added on the cells and left incubating at an ambient temperature for 10 min. The supernatant was removed, the wells were washed 2 × 1 mL of cold 0.01 M PBS, and the supernatants collected to the same microtube. The collected samples were measured with a gamma counter for measuring the counts per minute (CPM) of each fraction (n = 3). The internalization is presented in percent (%) normalized to the total radioactivity in all three

A word on the logD: it is lipophilicity at a set pH, counting ionised and neutral species. Low readings indicate a more hydrophilic compound, high ones a more lipophilic compound.

As to `C[C@@H](O)[C@@H]1NC(=O)[C@H](CCCCN)NC(=O)[C@@H](Cc2c[nH]c3ccccc23)NC(=O)[C@H](Cc2ccc(O)cc2)NC(=O)[C@@H](NC(=O)[C@@H](Cc2ccccc2)NC(=O)CCOCCOCCOCCOCCON=Cc2ccc(CNC(=O)OC3CCCc4cnnc(-c5ccc(CC(=O)NCC[N+](C)(C)C[B-](F)(F)F)cc5)c4CC3)cc2)CSSC[C@@H](C(=O)N[C@H](CO)[C@@H](C)O)NC1=O` (stereo partly drawn) [[^18F]14], the “stability in the formulated solution” value in data set [1] (sampled at 9 h) is reported as “stable”. For the same compound, the logD in data set [2] was -0.58 ± 0.06. In addition, in data set [3], the “cell uptake, baseline” value is listed as 1.0 ± 0.2% and the “cell uptake, blocking” value amounted to 0.5 ± 0.1%.

On to `C[C@@H](O)[C@@H]1NC(=O)[C@H](CCCCN)NC(=O)[C@@H](Cc2c[nH]c3ccccc23)NC(=O)[C@H](Cc2ccc(O)cc2)NC(=O)[C@@H](NC(=O)[C@@H](Cc2ccccc2)NC(=O)CCOCCOCCOCCOCCON=Cc2ccc(C(=O)NCCOCCOCCOCCNC(=O)OC3CCCc4cnnc(-c5ccc(CC(=O)NCC[N+](C)(C)C[B-](F)(F)F)cc5)c4CC3)cc2)CSSC[C@@H](C(=O)N[C@H](CO)[C@@H](C)O)NC1=O` (stereo partly drawn) [[^18F]15], for which the “stability in the formulated solution” value in data set [1] (several time points up to 6 h) is listed as “stable”. Moreover, in data set [2], the “log D7.4” value is on record as −0.73 ± 0.12 and the logD was -0.7 ± 0.1. In data set [3], the “cell uptake, baseline” value came out at 6.1 ± 0.6% and the “cell uptake, blocking” value came out at 0.7 ± 0.1%.
